Results reported in PMC9956223, “In Vitro Inhibitory Effects of Polyphenols from Flos sophorae immaturus on α-Glucosidase: Action Mechanism, Isothermal Titration Calorimetry and Molecular Docking Analysis” (Foods, 2023).
pKi: −log10 of the molar value. Entries after “also recorded” stand apart in the source; their conditions may differ. Marks after values point to notes of the source that are not given here.

The compounds below were run on α-glucosidase (Yeast) (assay: Omission experiment (model, single polyphenol and recombinant solutions)). Conditions: single polyphenol solution at its content in FSI extract (RU 3.40, QU 0.38, HY 0.34, QI 0.23, KA 0.23 mg/mL).
Assay type: biochemical
Protocol: (§1) The α-glucosidase inhibitory activity of the FSI samples was measured using the method described by Xiao et al., with minor modifications. Each sample solution (0.2 mL) was mixed with 1 mL of α-glucosidase (0.2 U/mL) of pH = 6.8 phosphate buffer solution. After incubation at 37 °C for 15 min, 0.5 mL of 5 mmol/L PNPG in phosphate buffer solution was added. The reaction was terminated by the addition of 1 mL of 0.1 mol/L sodium Na2CO3 […] at 37 °C for 15 min. The absorbance was measured at 405 nm. The α-glucosidase inhibitory activity was calculated using the following Equation (1):(1) α-Glucosidase inhibitory activity(%)=(ΔAcontrol−ΔAsample/ΔAcontrol)×100
Three different solutions were prepared based on different polyphenol fractions (RU (3.40 mg/mL), QU (0.38 mg/mL), HY (0.34 mg/mL), QI (0.23 mg/mL) and KA (0.23 mg/mL): (1) Model solution: a model solution based on the composition of FSI extract. (2) Single polyphenol solution: a component solution containing only a single polyphenol, prepared based on the polyphenol content in FSI extract. (3) Recombinant solution: a reconstituted solution consisting of the missing individual polyphenol. The α-glucosidase inhibitory activities of the model, single polyphenol and recombinant solutions were determined and the contribution of the missing polyphenols to α-glucosidase activity inhibition was calculated.

Compound | α-Glucosidase Inhibition Rate of Omitted Compounds
O=c1c(O[C@@H]2O[C@H](CO)[C@H](O)[C@H](O)[C@H]2O)c(-c2ccc(O)c(O)c2)oc2cc(O)cc(O)c12 [Hyperoside, hyperoside] | 75.00 ± 0.32%
O=c1c(O)c(-c2ccc(O)cc2)oc2cc(O)cc(O)c12 [Kaempferol, kaempferol] | 81.00 ± 0.12%
O=c1c(O)c(-c2ccc(O)c(O)c2)oc2cc(O)cc(O)c12 [Quercetin, quercetin] | 89.00 ± 0.25%
C[C@@H]1O[C@@H](Oc2c(-c3ccc(O)c(O)c3)oc3cc(O)cc(O)c3c2=O)[C@H](O)[C@H](O)[C@H]1O [Quercitrin, quercitrin] | 77.00 ± 0.20%
C[C@@H]1O[C@@H](OC[C@H]2O[C@@H](Oc3c(-c4ccc(O)c(O)c4)oc4cc(O)cc(O)c4c3=O)[C@H](O)[C@@H](O)[C@@H]2O)[C@H](O)[C@H](O)[C@H]1O [Rutin] | 69.00 ± 0.11%

The compounds below were run on α-glucosidase (Yeast) (assay: α-glucosidase inhibition type and kinetic analysis (Lineweaver–Burk)). Conditions: Lineweaver–Burk plots; listed as HY.
Assay type: biochemical
Protocol: In 5 mL of the reaction system, different concentrations of PNPG (0.5 mL) were mixed with different concentrations of polyphenols (0.1 mL) in a warm bath at 37 °C for 5 min, α-glucosidase solution (1 mL) was added and the absorbance was recorded at 405 nm in real time. Lineweaver–Burk curve method using the inverse of the PNPG concentration 1/(s) as the horizontal coordinate and the inverse of the enzymatic reaction rate 1/v as the vertical coordinate, and the type of inhibition was determined from the characteristics of the graph.

Compound | type of inhibition
O=c1c(O[C@@H]2O[C@H](CO)[C@H](O)[C@H](O)[C@H]2O)c(-c2ccc(O)c(O)c2)oc2cc(O)cc(O)c12 [Hyperoside, hyperoside] | mixed type of inhibition; also recorded: mixed inhibitors

Same assay, conditions: Lineweaver–Burk plots; listed as KA

Compound | type of inhibition
O=c1c(O)c(-c2ccc(O)cc2)oc2cc(O)cc(O)c12 [Kaempferol, kaempferol] | mixed type of inhibition; also recorded: mixed inhibitors

Same assay, conditions: Lineweaver–Burk plots; listed as QI

Compound | type of inhibition
C[C@@H]1O[C@@H](Oc2c(-c3ccc(O)c(O)c3)oc3cc(O)cc(O)c3c2=O)[C@H](O)[C@H](O)[C@H]1O [Quercitrin, quercitrin] | mixed type of inhibition; also recorded: mixed inhibitors

Same assay, conditions: Lineweaver–Burk plots; listed as QU

Compound | type of inhibition
O=c1c(O)c(-c2ccc(O)c(O)c2)oc2cc(O)cc(O)c12 [Quercetin, quercetin] | mixed type of inhibition; also recorded: mixed inhibitors

Same assay, conditions: Lineweaver–Burk plots; listed as RU

Compound | type of inhibition
C[C@@H]1O[C@@H](OC[C@H]2O[C@@H](Oc3c(-c4ccc(O)c(O)c4)oc4cc(O)cc(O)c4c3=O)[C@H](O)[C@@H](O)[C@@H]2O)[C@H](O)[C@H](O)[C@H]1O [Rutin] | mixed type of inhibition; also recorded: mixed inhibitors

Same assay, conditions: binding to α-glucosidase; Lineweaver–Burk

Compound | pKi
O=c1c(O[C@@H]2O[C@H](CO)[C@H](O)[C@H](O)[C@H]2O)c(-c2ccc(O)c(O)c2)oc2cc(O)cc(O)c12 [Hyperoside, hyperoside] | 2.42
COc1cc(-c2oc3cc(O)cc(O)c3c(=O)c2O)ccc1O [Isorhamnetin, isorhamnetin] | 1.82
O=C(O)c1ccc(O)c(O)c1 [Protocatechuic acid, protocatechuic acid] | 1.75
C[C@@H]1O[C@@H](Oc2c(-c3ccc(O)c(O)c3)oc3cc(O)cc(O)c3c2=O)[C@H](O)[C@H](O)[C@H]1O [Quercitrin, quercitrin] | 2.27

Same assay, conditions: binding to α-glucosidase; Lineweaver–Burk; listed as HY

Compound | pKi
O=c1c(O[C@@H]2O[C@H](CO)[C@H](O)[C@H](O)[C@H]2O)c(-c2ccc(O)c(O)c2)oc2cc(O)cc(O)c12 [Hyperoside, hyperoside] | 2.41

The compounds below were run against α-glucosidase (Yeast) (assay: α-glucosidase inhibitory activity (PNPG substrate, absorbance at 405 nm)). Conditions: α-glucosidase 0.2 U/mL, pH 6.8, 37 °C.
Assay type: biochemical
Protocol: as §1

Compound | IC50
O=c1c(O[C@@H]2O[C@H](CO)[C@H](O)[C@H](O)[C@H]2O)c(-c2ccc(O)c(O)c2)oc2cc(O)cc(O)c12 [Hyperoside, hyperoside] | 12.77 ± 0.07 ^d mg/mL
COc1cc(-c2oc3cc(O)cc(O)c3c(=O)c2O)ccc1O [Isorhamnetin, isorhamnetin] | 255.00 ± 0.11 ^g mg/mL
O=C(O)c1ccc(O)c(O)c1 [Protocatechuic acid, protocatechuic acid] | 369.00 ± 0.11 ^h mg/mL
C[C@@H]1O[C@@H](Oc2c(-c3ccc(O)c(O)c3)oc3cc(O)cc(O)c3c2=O)[C@H](O)[C@H](O)[C@H]1O [Quercitrin, quercitrin] | 25.37 ± 0.13 ^e mg/mL

Each compound was assayed on α-glucosidase (Yeast) (assay: Fluorescence quenching (Stern–Volmer) and thermodynamic parameters). Conditions: 298 K.
Assay type: binding
Protocol: An equal volume of polyphenol solution (0.02 mg/mL) was added to 3 mL of α-glucosidase solution (0.05 mg/mL) in 9 separate additions of 10 μL each. The mixture was shaken and then placed in a warm bath at 37 °C for 15 min. The system was scanned for fluorescence at three temperatures (298 K, 303 K, 310 K) using an F-7000 fluorescence spectrometer (Hitachi, Tokyo, Japan) at an excitation wavelength of 280 nm and excitation and emission slits of 5 nm. The fluorescence was scanned in the range of 310–500 nm and the corresponding blank control fluorescence spectra were subtracted to calculate the fluorescence. The Stern–Volmer equation was used to calculate the fluorescence burst constants and determine the type of burst.
Therefore, the spontaneity and binding force of their interactions can be studied by calculating thermodynamic parameters. The values of the free energy change (ΔG), enthalpy change (ΔH) and entropy change (ΔS) can be calculated by Equations (5) and (6). (5) ΔG=[…]=ΔH−TΔS (6) lnKb2/Kb1=[…]ΔH×1/R where R = 8.314 J/(mol·K).

Compound | KSV | Kq
O=c1c(O[C@@H]2O[C@H](CO)[C@H](O)[C@H](O)[C@H]2O)c(-c2ccc(O)c(O)c2)oc2cc(O)cc(O)c12 [Hyperoside, hyperoside] | 124300 L/mol | 1.243e+13 M⁻¹ s⁻¹
O=c1c(O)c(-c2ccc(O)cc2)oc2cc(O)cc(O)c12 [Kaempferol, kaempferol] | 222300 L/mol | 2.223e+13 M⁻¹ s⁻¹
O=c1c(O)c(-c2ccc(O)c(O)c2)oc2cc(O)cc(O)c12 [Quercetin, quercetin] | 107100 L/mol | 1.071e+13 M⁻¹ s⁻¹
C[C@@H]1O[C@@H](Oc2c(-c3ccc(O)c(O)c3)oc3cc(O)cc(O)c3c2=O)[C@H](O)[C@H](O)[C@H]1O [Quercitrin, quercitrin] | 74500 L/mol | 7.45e+12 M⁻¹ s⁻¹
C[C@@H]1O[C@@H](OC[C@H]2O[C@@H](Oc3c(-c4ccc(O)c(O)c4)oc4cc(O)cc(O)c4c3=O)[C@H](O)[C@@H](O)[C@@H]2O)[C@H](O)[C@H](O)[C@H]1O [Rutin] | 45000 L/mol | 4.5e+12 M⁻¹ s⁻¹

Same assay, conditions: 303 K

Compound | KSV | Kq
O=c1c(O[C@@H]2O[C@H](CO)[C@H](O)[C@H](O)[C@H]2O)c(-c2ccc(O)c(O)c2)oc2cc(O)cc(O)c12 [Hyperoside, hyperoside] | 89600 L/mol | 8.96e+12 M⁻¹ s⁻¹
O=c1c(O)c(-c2ccc(O)cc2)oc2cc(O)cc(O)c12 [Kaempferol, kaempferol] | 493300 L/mol | 4.933e+13 M⁻¹ s⁻¹
O=c1c(O)c(-c2ccc(O)c(O)c2)oc2cc(O)cc(O)c12 [Quercetin, quercetin] | 75200 L/mol | 7.52e+12 M⁻¹ s⁻¹
C[C@@H]1O[C@@H](Oc2c(-c3ccc(O)c(O)c3)oc3cc(O)cc(O)c3c2=O)[C@H](O)[C@H](O)[C@H]1O [Quercitrin, quercitrin] | 78700 L/mol | 7.87e+12 M⁻¹ s⁻¹
C[C@@H]1O[C@@H](OC[C@H]2O[C@@H](Oc3c(-c4ccc(O)c(O)c4)oc4cc(O)cc(O)c4c3=O)[C@H](O)[C@@H](O)[C@@H]2O)[C@H](O)[C@H](O)[C@H]1O [Rutin] | 93700 L/mol | 9.37e+12 M⁻¹ s⁻¹

Same assay, conditions: 310 K

Compound | KSV | Kq
O=c1c(O[C@@H]2O[C@H](CO)[C@H](O)[C@H](O)[C@H]2O)c(-c2ccc(O)c(O)c2)oc2cc(O)cc(O)c12 [Hyperoside, hyperoside] | 111700 L/mol | 1.117e+13 M⁻¹ s⁻¹
O=c1c(O)c(-c2ccc(O)cc2)oc2cc(O)cc(O)c12 [Kaempferol, kaempferol] | 424600 L/mol | 4.246e+13 M⁻¹ s⁻¹
O=c1c(O)c(-c2ccc(O)c(O)c2)oc2cc(O)cc(O)c12 [Quercetin, quercetin] | 55500 L/mol | 5.55e+12 M⁻¹ s⁻¹
C[C@@H]1O[C@@H](Oc2c(-c3ccc(O)c(O)c3)oc3cc(O)cc(O)c3c2=O)[C@H](O)[C@H](O)[C@H]1O [Quercitrin, quercitrin] | 54500 L/mol | 5.45e+12 M⁻¹ s⁻¹
C[C@@H]1O[C@@H](OC[C@H]2O[C@@H](Oc3c(-c4ccc(O)c(O)c4)oc4cc(O)cc(O)c4c3=O)[C@H](O)[C@@H](O)[C@@H]2O)[C@H](O)[C@H](O)[C@H]1O [Rutin] | 93400 L/mol | 9.34e+12 M⁻¹ s⁻¹
